Experiments:
[1] = tested on: MCF7 (breast adenocarcinoma, Rb-positive); assay: Cellular proliferation assay (CellTiter-Glo), MCF7; format: cell-based
Procedure: The MCF7 cells were seeded in Costar (Tewksbury, Mass.) 3903 96 well tissue culture treated white walled/clear bottom plates. A nine point dose response dilution series from 10 uM to 1 nM was performed and cell viability was determined after six days of compound treatment as indicated using the CellTiter-Glo® luminescent cell viability assay (CTG; Promega, Madison, Wis., United States of America) following the manufacturer's recommendations. Plates were read on a BioTek (Winooski, Vt.) Syngergy2 multi-mode plate reader. The Relative Light Units (RLU) were plotted as a result of variable molar concentration and data was analyzed using Graphpad (LaJolla, Calif.) Prism 5 statistical software to determine the EC50 for each compound.
(§1) Cellular proliferation assays were conducted using the following cancer cell lines: MCF7 (breast adenocarcinoma—Rb-positive), ZR-75-1 (breast ductal carcinoma—Rb-positive), H69 (human small cell lung cancer—Rb-negative) cells, or A2058 (human metastatic melanoma cells—Rb-negative). These cells were seeded in Costar (Tewksbury, Mass.) […] 96 well tissue culture treated white walled/clear bottom plates. Cells were treated with the compounds of Table 1 as nine point dose response dilution series from 10 uM to 1 nM. Cells were exposed to compounds and then cell viability was determined after either four (H69) or six (MCF7, ZR75-1, A2058) days as indicated using the CellTiter-Glo® luminescent cell viability assay (CTG; Promega, Madison, Wis., United States of America) following the manufacturer's recommendations. Plates were read on BioTek (Winooski, Vt.) Syngergy2 multi-mode plate reader. The Relative Light Units (RLU) were plotted as a result of variable molar concentration and data was analyzed using Graphpad (LaJolla, Calif.) Prism 5 statistical software to determine the EC50 for each compound.

[2] = tested on: ZR-75-1 (breast ductal carcinoma, Rb-positive); assay: Cellular proliferation assay (CellTiter-Glo), ZR-75-1; format: cell-based
Procedure: as §1

[3] = tested on: HS68 cells (human fibroblast, Rb-positive); assay: Cellular wash-out experiment, HS68 cells; format: cell-based; conditions: in vitro wash-out experiment
Procedure: […]. On day 3, one set of treated cell samples were harvested in triplicate (0 Hour sample). Remaining cells were washed two times in PBS-CMF and returned to culture media lacking test compound. Sets of samples were harvested in triplicate at 24, 40, and 48 hours.
(§2) Upon harvesting cells, samples were stained with propidium iodide staining solution and samples run on Dako Cyan Flow Cytometer. The fraction of cells in G0-G1 DNA cell cycle versus the fraction in S-phase DNA cell cycle was determined using FlowJo 7.2 0.2 analysis.

[4] = tested on: human renal proximal tubule epithelial cells (Rb-positive); assay: Cellular wash-out experiment, renal proximal tubule epithelial cells; format: cell-based; conditions: 300 nM
Procedure: Alternatively, the same experiment was done using normal Renal Proximal Tubule Epithelial Cells (Rb-positive) obtained from American Type Culture Collection (ATCC, Manassas, Va.). Cells were grown in an incubator at 37° C. in a humidified atmosphere of 5% CO2 in Renal Epithelial Cell Basal Media (ATCC) supplemented with Renal Epithelial Cell Growth Kit (ATCC) in 37° C. humidified incubator.
as §2

[5] = PD0332991 pharmacokinetics and HSPC arrest in humans; format: in vivo; conditions: single administration
Procedure: When calculated half-life was longer than the duration of the experiment, the half-life was expressed as >the longest incubation time. The calculated half-life is also listed in parentheses. […] The timely resumption of cellular proliferation is necessary for tissue repair, and therefore an overly long period of arrest is undesirable in healthy cells such as HSPCs. The characteristics of a CDK4/6 inhibitor that dictate its arresting duration are its pharmacokinetic (PK) and enzymatic half-lives. Once initiated, a G1-arrest in vivo will be maintained as long as circulating compound remains at an inhibitory level, and as long as the compound engages the enzyme. […] These observations may explain the severe granulocytopenia seen with PD0332991 in the clinic.

HSPCs (LKS+) [6] = conditions: single oral dose 150 mg/kg, mice; Roberts et al.; cited from earlier work
[7] = tested on: myeloid progenitor cells (LKS-); conditions: single oral dose 150 mg/kg, mice; Roberts et al.; cited from earlier work
[8] = Schwartz et al. (2011); cited from earlier work
CDK4/CyclinD1 = CDK4/CyclinD1 (Homo sapiens (Human), UniProt P11802); assay: CDK4/cyclinD1 kinase assay (Nanosyn, microfluidic Caliper platform); format: biochemical; conditions: Table 3; read-out: CDK4/CycD1 IC50
Procedure: Selected compounds disclosed herein were tested in CDK4/cyclinD1, CDK2/CycA and CDK2/cyclinE kinase assays by Nanosyn (Santa Clara, Calif.) to determine their inhibitory effect on these CDKs. The assays were performed using microfluidic kinase detection technology (Caliper Assay Platform). The compounds were tested in 12-point dose-response format in singlicate at Km for ATP. Phosphoacceptor substrate peptide concentration used was 1 μM for all assays and Staurosporine was used as the reference compound for all assays. Specifics of each assay are as described below:
CDK4/CyclinD1: Enzyme concentration: 1 nM; ATP concentration: 200 μM; Incubation time: 10 hr.

CDK6/CycD3 = CDK6/CycD3 (Homo sapiens (Human), UniProt Q00534); assay: CDK6/CycD3 kinase assay; format: biochemical
[9] = Mouse pharmacokinetics (oral gavage / intravenous); format: in vivo, mice; conditions: plasma, 30 mg/kg, read-out: F (oral bioavailability)
Procedure: Blood samples were taken at 0, 0.25, 0.5, 1.0, 2.0, 4.0, and 8.0 hours post dosing and the plasma concentrations were determined by HPLC.

HSPCs (LKS+) [10] = assay: Bone marrow HSPC proliferation by EdU incorporation and flow cytometry; format: in vivo; conditions: 150 mg/kg oral gavage, mice
Procedure: . JCNI 2012; 104(6):476-487 (FIG. 2A). […].
Mice were then sacrificed at the indicated times (0, 12, 24, 36, or 48 hours following compound administration), and bone marrow was harvested (n=3 mice per time point), as previously described (Johnson et al. J. Clin. Invest. (2010) 120(7), 2528-2536). Four hours before the bone marrow was harvested, mice were treated with 100 μg of EdU by intraperitoneal injection (Invitrogen). Bone marrow mononuclear cells were harvested and immunophenotyped using previously described methods and percent EdU positive cells were then determined (Johnson et al. J. Clin. Invest. (2010) 120(7), 2528-2536). In brief, HSPCs were identified by expression of lineage markers (Lin−), Sca1 (S+), and c-Kit (K+).
Four hours before animals were sacrificed and the bone marrow was harvested, mice were treated with 100 μg of EdU by intraperitoneal injection. Three mice per group were sacrificed at 12 hours and the remaining three animals per group were sacrificed at 24 hours. Results are shown in FIG. 5A as the ratio of EdU positive cells for treated animals at 12 or 24 hour time points compared to control.
Further experiments were completed with Compound T examining dose response and longer periods of compound treatment. […] […].
Both compounds were administered at 150 mg/kg by oral gavage. One hour prior to harvesting bone marrow, EdU was IP injected to label cycling cells. Bone marrow was harvested at 12, 24, 36, and 48 hours after compound treatment and the percentage of EdU positive HSPC cells was determined at each time point.

[11] = tested on: MMTV-c-neu (Rb-positive) tumors; assay: MMTV-c-neu HER2-driven (Rb-positive) luminal breast cancer mouse model; format: in vivo, mice
Description: A HER2-driven model (Rb-positive) of breast cancer (Muller W J, Sinn E, Pattengale P K, Wallace R, Leder P. Single-step induction of mammary adenocarcinoma in transgenic mice bearing the activated c-neu oncogene. Cell 1988; 54: 105-15), that expresses c-neu (the mouse ortholog of human HER2) driven by the MMTV promoter was used in the following example. This model was chosen because previous studies in murine (Yu Q, Geng Y, Sicinski P. Specific protection against breast cancers by cyclin D1 ablation. Nature 2001; 411: 1017-21; Landis M W, Pawlyk B S, Li T, Sicinski P, Hinds P W. Cyclin D1-dependent kinase activity in murine development and mammary tumorigenesis. Cancer Cell 2006; 9: 13-22; Reddy H K, Mettus R V, Rane S G, Grana X, Litvin J, Reddy E P. Cyclin-dependent kinase 4 expression is essential for neu-induced breast tumorigenesis. Cancer Res 2005; 65: 10174-8; Yu Q, Sicinska E, Geng Y, Ahnstrom M, Zagozdzon A, Kong Y, et al. Requirement for CDK4 kinase function in breast cancer. Cancer Cell 2006; 9: 23-32.) and human HER2-positive breast cancer (An H X, Beckmann M W, Reifenberger G, Bender H G, Niederacher D. Gene amplification and overexpression of CDK4 in sporadic breast carcinomas is associated with high tumor cell proliferation. Am J Pathol 1999; 154: 113-8; Samady L, Dennis J, Budhram-Mahadeo V, Latchman DS. Activation of CDK4 gene expression in human breast cancer cells by the Brn-3b POU family transcription factor. Cancer Biol Ther 2004; 3: 317-23; Takano Y, Takenaka H, Kato Y, Masuda M, Mikami T, Saegusa M, et al. Cyclin D1 overexpression in invasive breast cancers: correlation with cyclin-dependent kinase 4 and oestrogen receptor overexpression, and lack of correlation with mitotic activity.
MMTV-neu mice were generated and observed post-lactation, with tumors observed with a median latency of approximately 25 weeks. Mice were enrolled in therapy studies when tumors reached a standard size (50-60 mm3) that permitted easy serial assessment. […] Tumor volumes were calculated by the formula, Volume=[(width)^2×length]/2. Tumor-bearing mice were euthanized at the indicated times due to predefined morbidity, tumor ulceration, or a tumor size of more than 1.5 cm in diameter.
Tumors were serially assessed weekly using caliper measurements. Therapeutic intervention began once tumors reached 40-64 mm^3. Tumor volume was calculated using the formula […]. All three compounds were administered orally via medicated diets (100 mg/kg/d). Medicated diets were administered for 28 consecutive days and then stopped. RECIST criteria were used to assess objective response rates.

Sequence of CDK6/CycD3 (Q00534 whole entry, species assumed): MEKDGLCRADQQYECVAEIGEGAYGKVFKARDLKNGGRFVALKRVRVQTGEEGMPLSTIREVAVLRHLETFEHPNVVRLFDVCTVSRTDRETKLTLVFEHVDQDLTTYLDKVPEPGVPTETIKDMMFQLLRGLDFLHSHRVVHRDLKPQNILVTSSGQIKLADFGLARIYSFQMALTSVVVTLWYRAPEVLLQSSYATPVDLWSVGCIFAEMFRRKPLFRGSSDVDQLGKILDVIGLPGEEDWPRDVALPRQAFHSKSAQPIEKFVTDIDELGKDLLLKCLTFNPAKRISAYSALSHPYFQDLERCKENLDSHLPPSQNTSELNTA
Sequence of CDK6/CycD3 (P30281 whole entry partner, species assumed): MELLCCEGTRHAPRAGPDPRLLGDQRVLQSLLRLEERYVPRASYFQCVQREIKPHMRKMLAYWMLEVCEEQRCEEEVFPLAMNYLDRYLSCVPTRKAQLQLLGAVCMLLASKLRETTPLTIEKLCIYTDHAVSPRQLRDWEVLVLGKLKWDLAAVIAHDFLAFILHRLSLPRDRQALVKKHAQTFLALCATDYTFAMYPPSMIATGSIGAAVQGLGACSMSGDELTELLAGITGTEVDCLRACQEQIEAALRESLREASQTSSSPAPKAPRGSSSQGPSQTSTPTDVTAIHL
Sequence of CDK4/CyclinD1 (P11802 whole entry, species assumed): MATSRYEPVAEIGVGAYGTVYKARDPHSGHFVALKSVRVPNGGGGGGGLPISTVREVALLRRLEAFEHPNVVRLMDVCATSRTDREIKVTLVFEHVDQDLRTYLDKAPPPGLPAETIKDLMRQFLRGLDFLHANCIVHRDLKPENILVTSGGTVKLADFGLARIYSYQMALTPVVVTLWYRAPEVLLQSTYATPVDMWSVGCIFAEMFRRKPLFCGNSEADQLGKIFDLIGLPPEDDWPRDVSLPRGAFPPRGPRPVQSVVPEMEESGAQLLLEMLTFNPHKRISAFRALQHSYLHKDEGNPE
Sequence of CDK4/CyclinD1 (P24385 whole entry partner, species assumed): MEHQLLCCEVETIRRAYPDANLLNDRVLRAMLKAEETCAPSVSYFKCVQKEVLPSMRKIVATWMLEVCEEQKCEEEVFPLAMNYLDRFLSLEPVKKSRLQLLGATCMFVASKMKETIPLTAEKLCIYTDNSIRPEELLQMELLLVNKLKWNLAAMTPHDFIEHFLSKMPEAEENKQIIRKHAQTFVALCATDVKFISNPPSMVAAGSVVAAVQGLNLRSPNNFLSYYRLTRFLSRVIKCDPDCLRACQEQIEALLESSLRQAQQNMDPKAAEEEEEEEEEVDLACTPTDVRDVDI

SMILES	inhibition of cellular proliferation of MCF-7 cells (FIGS. 21-24) [1]	inhibition of cellular proliferation of ZR75-1 cells (FIGS. 25-28) [2]	duration of cell cycle arrest after compound is removed from the cell culture media [3]	return to baseline levels of cell division after wash out compared to compounds T, Q, GG, or U [4]	duration of cell cycle arrest of HSPC in humans [5]	duration of sustained reduction in HSPC EdU incorporation (FIG. 2) (HSPCs (LKS+) [6])	time post oral dosing at which HSPC return to baseline cell division (FIG. 2) (HSPCs (LKS+) [6])	duration of sustained reduction in myeloid progenitor cell EdU incorporation (FIG. 2) [7]	time post oral dosing at which myeloid progenitor cells return to baseline cell division (FIG. 2) [7]	PK half-life in humans [8]	IC50 (CDK4/CyclinD1)	IC50 (CDK6/CycD3)	bioavailability [9]	EdU incorporation into HSPCs at 12 and 24 hours (FIG. 5A) (HSPCs (LKS+) [10])	tumor volume during a 28 day course of therapy ([11]; 100 mg/kg/d in chow)	objective response rate ([11]; 100 mg/kg/day medicated diet, 28 days, RECIST criteria)
CC(=O)c1c(C)c2cnc(Nc3ccc(N4CCNCC4)cn3)nc2n(C2CCCC2)c1=O [PD0332991, 6-acetyl-8-cyclopentyl-5-methyl-2-(5-piperazin-1-yl-pyridin-2-ylammino)-8H-pyrido-[2,3-d]-pyrimidin-7-one]	significant inhibition of cellular proliferation	significant inhibition of cellular proliferation	more than forty hours	took significantly longer to return to baseline levels of cell division	approximately one week	greater than 36 hours	48 h	greater than 36 hours	48 h	27 h	–	–	–	–	–	–
CC(C)N1CCN(c2ccc(Nc3ncc4cc5n(c4n3)C3(CCCCC3)CNC5=O)nc2)CC1 [GG]	significant inhibition of cellular proliferation	significant inhibition of cellular proliferation	–	–	–	–	–	–	–	–	0.7 to 1 nM	5 to 6 nM	52%	reduction in EdU incorporation at 12 hours which was starting to return to normal at 24 hours	marked decrease in tumor volume	85%

From US9527857B2, “HSPC-sparing treatments for RB-positive abnormal cellular proliferation” (G1 Therapeutics, Inc., priority 2013, dated 2016)
